Reference: publication PMC8942522 (Journal of Enzyme Inhibition and Medicinal Chemistry, 2022)
Several values for one entry are separate records, joined by “and”; a condition that tells them apart may be missing. Equal values may be shown once. Read-outs that look alike come from different tables or passages of the source. Blank lines part the entries; values can stand above or below the molecule they belong to.

How the values were obtained:
[1] = test system: intracellular amastigotes of T. cruzi; assay: Intracellular T. cruzi in U-2 OS cells; type: cell-based, T. cruzi (strain Y); settings: for selectivity index [SI vs. THP-1], T. cruzi: CC50 THP-1 / EC50 T. cruzi; for selectivity index [SI vs. U-2 OS], T. cruzi: CC50 U-2 OS / EC50 T. cruzi; for EC50: read-out: Cytotoxicity EC50 T. cruzi, intracellular amastigotes in U-2 OS, 72 h
[2] = test system: intracellular amastigotes of L. donovani; assay: Intracellular L. donovani in THP-1 cells; settings: for selectivity index [SI vs. THP-1], L. donovani: CC50 THP-1 / EC50 L. donovani
TcTryS = biological target: T1, TcTryS (Trypanosoma cruzi, UniProt Q9GT49); assay: TryS inhibition assay; type: biochemical; settings: for % TryS inhibition at 25 μM, T. cruzi: mean ± SD, NA = not active (inhibition ≤ 0.0 ± 5.0%); for IC50: IC50 T. cruzi TryS, 1 h pre-incubation, DRC, values italic and bold in Table 1
T1 sequence (Q9GT49 1-647): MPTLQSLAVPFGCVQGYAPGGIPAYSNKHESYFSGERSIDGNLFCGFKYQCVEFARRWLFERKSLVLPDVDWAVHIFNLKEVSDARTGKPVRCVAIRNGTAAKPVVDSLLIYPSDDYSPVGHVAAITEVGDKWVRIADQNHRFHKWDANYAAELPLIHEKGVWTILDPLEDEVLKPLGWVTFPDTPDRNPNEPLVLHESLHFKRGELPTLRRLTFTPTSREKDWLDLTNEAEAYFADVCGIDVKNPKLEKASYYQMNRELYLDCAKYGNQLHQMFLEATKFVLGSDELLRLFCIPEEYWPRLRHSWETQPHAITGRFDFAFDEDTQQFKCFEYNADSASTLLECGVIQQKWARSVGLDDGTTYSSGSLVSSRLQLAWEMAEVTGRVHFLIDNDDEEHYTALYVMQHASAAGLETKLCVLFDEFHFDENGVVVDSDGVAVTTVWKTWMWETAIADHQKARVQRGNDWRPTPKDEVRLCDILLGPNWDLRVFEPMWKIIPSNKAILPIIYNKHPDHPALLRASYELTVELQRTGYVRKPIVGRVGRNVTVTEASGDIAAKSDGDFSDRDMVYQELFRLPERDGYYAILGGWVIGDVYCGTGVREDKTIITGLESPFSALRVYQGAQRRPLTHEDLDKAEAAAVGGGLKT

bloodstream T. brucei = assay: Cytotoxicity against bloodstream T. brucei; type: cell-based, T. brucei (strain 427, cell line 449); settings: CC50 THP-1 / EC50 T. brucei
[3] = test system: redox biosensor hGrx1-roGFP2 in bloodstream T. b. brucei; assay: Redox assay with hGrx1-roGFP2 reporter cell line; type: cell-based, T. brucei brucei (strain 427, cell line 449)
TbTryS [4] = assay: Time-dependent inhibition assay; type: biochemical, Trypanosoma brucei; settings: n = 6
TbTryS [5] = assay: Dilution and reduction-based; type: biochemical, Trypanosoma brucei; settings: Ebselen 10 µM 1 h, n = 6
TbTryS [6] = type: biochemical, Trypanosoma brucei; settings: 1 h, n = 8; for TryS inhibition ± SD, mass spectrometry sample B: IAM 15 mM, no Ebselen
LiTryS = biological target: T2, LiTryS (Leishmania infantum, UniProt A4I2Z3); assay: TryS inhibition assay; type: biochemical; settings: mean ± SD, NA = not active (inhibition ≤ 0.0 ± 5.0%)
T2 sequence (A4I2Z3 1-652): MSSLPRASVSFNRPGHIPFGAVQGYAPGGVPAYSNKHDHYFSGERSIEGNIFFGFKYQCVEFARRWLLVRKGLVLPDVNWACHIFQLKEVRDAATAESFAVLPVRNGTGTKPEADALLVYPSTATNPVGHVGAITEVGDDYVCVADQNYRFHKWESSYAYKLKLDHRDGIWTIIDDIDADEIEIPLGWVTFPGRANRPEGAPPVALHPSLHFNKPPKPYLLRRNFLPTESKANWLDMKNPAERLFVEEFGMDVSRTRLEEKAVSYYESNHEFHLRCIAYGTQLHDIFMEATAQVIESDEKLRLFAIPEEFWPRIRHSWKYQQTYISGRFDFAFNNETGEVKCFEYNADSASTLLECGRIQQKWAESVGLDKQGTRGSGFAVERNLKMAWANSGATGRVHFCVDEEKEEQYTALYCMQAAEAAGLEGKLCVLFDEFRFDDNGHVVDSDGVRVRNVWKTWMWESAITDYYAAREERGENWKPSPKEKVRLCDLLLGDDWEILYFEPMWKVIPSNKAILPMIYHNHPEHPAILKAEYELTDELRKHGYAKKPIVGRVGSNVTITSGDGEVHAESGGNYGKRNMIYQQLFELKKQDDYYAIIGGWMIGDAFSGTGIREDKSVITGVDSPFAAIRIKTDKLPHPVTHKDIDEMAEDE

[7] = biological target: T3, TryS from Trypanosoma brucei (TbTryS) (Trypanosoma brucei brucei, UniProt Q586P2); assay: TryS inhibition assay; type: biochemical; settings: mean ± SD, NA = not active (inhibition ≤ 0.0 ± 5.0%)
T3 sequence (Q586P2 1-627): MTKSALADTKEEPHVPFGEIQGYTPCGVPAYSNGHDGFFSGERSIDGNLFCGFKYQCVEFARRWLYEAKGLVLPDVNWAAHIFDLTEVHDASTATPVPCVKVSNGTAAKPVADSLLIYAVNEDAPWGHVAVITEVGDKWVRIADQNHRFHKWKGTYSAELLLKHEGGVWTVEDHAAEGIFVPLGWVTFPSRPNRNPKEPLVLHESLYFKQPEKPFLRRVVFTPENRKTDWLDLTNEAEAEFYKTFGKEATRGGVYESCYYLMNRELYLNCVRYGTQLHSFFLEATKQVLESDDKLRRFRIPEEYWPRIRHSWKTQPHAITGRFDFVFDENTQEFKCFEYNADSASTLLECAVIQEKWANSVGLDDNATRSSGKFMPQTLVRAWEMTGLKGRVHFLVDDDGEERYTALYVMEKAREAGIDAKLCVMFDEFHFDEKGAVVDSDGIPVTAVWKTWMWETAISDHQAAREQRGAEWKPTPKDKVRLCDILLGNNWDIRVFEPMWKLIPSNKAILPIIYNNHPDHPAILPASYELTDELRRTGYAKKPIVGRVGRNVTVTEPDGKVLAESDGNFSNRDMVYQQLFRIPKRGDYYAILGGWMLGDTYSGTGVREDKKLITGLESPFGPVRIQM

Structure (SMILES): NC(Cc1cc(O)c(O)cc1O)C(=O)O (racemic) [Compound 3, 6-Hydroxy-DL-DOPA]
selectivity index [SI vs. THP-1], T. cruzi [1]: > 2.7
selectivity index [SI vs. U-2 OS], T. cruzi [1]: 2.7
EC50 [1]: 34 µM and ~34 µM

Structure (SMILES): C[C@@H]1[C@H](O)[C@@H](C)/C=C/C=C/C=C/C=C/C=C/C=C/C=C/[C@H](O[C@@H]2O[C@H](C)[C@@H](O)[C@H](N)[C@@H]2O)C[C@@H]2O[C@](O)(C[C@@H](O)C[C@@H](O)[C@H](O)CC[C@@H](O)C[C@@H](O)CC(=O)O[C@H]1C)C[C@H](O)[C@H]2C(=O)O [Amphotericin B]
selectivity index [SI vs. THP-1], L. donovani [2]: > 22

Structure (SMILES): O=C(Cn1ccnc1[N+](=O)[O-])NCc1ccccc1 [Benznidazole]
EC100 ([1]; reference drug concentration used in T. cruzi assay): 400 µM

inhibition at 25 µM (TcTryS; read-out: % TryS inhibition at 25 μM, T. cruzi): 5.5 ± 2.8%
Structure (SMILES): O=C(O)C1=CC(=C(c2ccc(O)c(C(=O)O)c2)c2ccc(O)c(C(=O)O)c2)C=CC1=O [Compound 1, Aurintricarboxylic acid]

Structure (SMILES): O=C(O)c1cc[c]([Hg][Cl])cc1 [Compound 2, 4-Chloromercuribenzoic acid]
% TryS inhibition at 25 μM, T. cruzi (TcTryS): 32.0 ± 9.7%

Structure (SMILES): O=c1c2ccccc2[se]n1-c1ccccc1 [Compound 5, Ebselen]
IC50 (TcTryS): 13.8 ± 1.5 µM
selectivity index [SI vs. THP-1], T. brucei (bloodstream T. brucei): 11
selectivity index [SI vs. THP-1], T. cruzi [1]: > 36
selectivity index [SI vs. U-2 OS], T. cruzi [1]: 2.4
EC50 [1]: 2.8 ± 0.1 µM
oxidation of the biosensor ([3]; 18 µM (2-fold its EC50), 4 h, reverted by DTT 1 mM 20 min): 48%
TryS inhibition ± SD, time-dependent assay, sample A (TbTryS [4]; Ebselen 5 µM pre-incubated 1 h with TbTryS, reaction started with MM): 43.6 ± 4.5%
TryS inhibition ± SD, time-dependent assay, sample C (TbTryS [4]; Ebselen 5 µM, no pre-incubation): 1.8 ± 4.2%
TryS inhibition ± SD, irreversible inhibition assay, sample A (TbTryS [5]; buffer exchanged, DTT 5 mM 30 min): 89 ± 8.5%
TryS inhibition ± SD, irreversible inhibition assay, sample B (TbTryS [5]; buffer exchanged, no DTT): 97.0 ± 5.0%
TryS inhibition ± SD, irreversible inhibition assay, sample C (TbTryS [5]; no buffer exchange, no DTT): 100 ± 9%
TryS inhibition ± SD, mass spectrometry sample A (TbTryS [6]; Ebselen 20 µM): 100 ± 7%
TryS inhibition ± SD, mass spectrometry sample A (value in parenthesis) (TbTryS [6]; Ebselen 50 µM): 96 ± 8%
EC50 ([2]; Leishmania donovani, THP-1, 96 h, read-out: Cytotoxicity EC50 L. donovani): > 100 µM

IC50 (TcTryS): 40 ± 1.2 µM
Structure (SMILES): C[n+]1cc2c3c(ccc2c2ccc4cc5c(cc4c21)OCO5)OCO3 [Compound 6, Sanguinarine chloride]
selectivity index [SI vs. THP-1], T. cruzi [1]: 9.5
selectivity index [SI vs. U-2 OS], T. cruzi [1]: 1.3
EC50 [1]: 0.37 ± 0.11 µM
selectivity index [SI vs. THP-1], L. donovani [2]: 2

Structure (SMILES): Clc1ccc(C(c2ccc(Cl)cc2)n2cc[n+](CC(OCc3ccc(Cl)cc3Cl)c3ccc(Cl)cc3Cl)c2)cc1 (stereo not shown) [Compound 7, Calmidazolium chloride]
IC50 (TcTryS): 2.7 ± 0.5 µM
selectivity index [SI vs. U-2 OS], T. cruzi [1]: 1.1
EC50 [1]: 1.6 ± 0.1 µM
effect on parasites at 2× EC50 in redox assay ([3]; 2× EC50, 4 h): massive cell death

% TryS inhibition at 25 μM, T. cruzi (TcTryS): 10.9 ± 5.6%
% TryS inhibition at 25 μM, L. infantum (LiTryS): 8.9 ± 5.9%
Structure (SMILES): N=C1Sc2ccccc2C2=NCCCN12 [Compound 9, PD 404,182]

% TryS inhibition at 25 μM, T. brucei [7]: 14.4 ± 8.2%
% TryS inhibition at 25 μM, T. cruzi (TcTryS): 34.7 ± 7.6%
Structure (SMILES): Cl.Nc1nc(NCC2CCC(CNS(=O)(=O)c3cccc4ccccc34)CC2)nc2ccccc12 (stereo not shown) [Compound 11, CGP 71683 hydrochloride]
selectivity index [SI vs. THP-1], L. donovani [2]: 1.1

% TryS inhibition at 25 μM, T. brucei [7]: 9.2 ± 7.4%
% TryS inhibition at 25 μM, T. cruzi (TcTryS): 25.9 ± 6.5%
% TryS inhibition at 25 μM, L. infantum (LiTryS): 70.9 ± 6.8%
Structure (SMILES): CCCC[P+](CCCC)(CCCC)Cc1ccc(NC(=O)[C@H](Cc2ccc3ccccc3c2)NC(=NC2CCCCC2)NC2CCCCC2)cc1.Cl.[Cl-] [Compound 13, WIN 64338 hydrochloride]
selectivity index [SI vs. THP-1], L. donovani [2]: 1.9

% TryS inhibition at 25 μM, T. cruzi (TcTryS): 7.1 ± 4.0%
% TryS inhibition at 25 μM, L. infantum (LiTryS): 16.8 ± 17.9%
Structure (SMILES): O=C(CCc1c(-c2ccc(F)cc2)[nH]c2ccc(F)cc12)N1CCN(c2ccncc2)CC1 [Compound 14]
selectivity index [SI vs. THP-1], T. brucei (bloodstream T. brucei): 11

% TryS inhibition at 25 μM, L. infantum (LiTryS): 28.5 ± 11.1%
Structure (SMILES): Cc1nc(C(=O)N2CCCC2c2ccc(F)c(F)c2)c(=O)[nH]c1C (stereo not shown) [Compound 18]

% TryS inhibition at 25 μM, T. cruzi (TcTryS): 13.3 ± 3.3%
Structure (SMILES): CCN(CC)C(=O)COC(=O)c1c(NC(C)=O)sc2c1CCCC2 [Compound 19]
selectivity index [SI vs. THP-1], T. brucei (bloodstream T. brucei): > 4

% TryS inhibition at 25 μM, T. cruzi (TcTryS): 12.9 ± 6.1%
% TryS inhibition at 25 μM, L. infantum (LiTryS; listed as 46, 25 µM): 74%
Structure (SMILES): O=C1Cc2cc(-c3csc(NCCc4cccs4)n3)cc3c2N1CCC3 [Compound 22]

Structure (SMILES): NC(=O)CI [IAM, iodoacetamide]
TryS inhibition ± SD, mass spectrometry sample B (TbTryS [6]): 20 ± 9%
TryS inhibition ± SD, mass spectrometry sample B (TbTryS [6]; listed as iodoacetamide): negligible effects on TryS activity
